Structures can show the parent of a compound that is named as a salt.
Columns and labels:
mesangial cells = conditions: together with the extracellular domain of Ax1; blockade of the Gas6-mediated pathway; cited from earlier work
Ax1 [1] = conditions: vascular smooth muscle cells; cited from earlier work
Ax1 [2] = experiment: Ax1 immunoprecipitation and anti-phosphotyrosine blot after TGF-β stimulation; type: cell-based, rat; conditions: serum starved Rat1 cells, 5 ng/ml TGF-β, 15 min-2 hr
Procedure: FIG. 3. […] Rat1 cells exposed to TGF-β stimulation (5 ng/ml for 15 minutes, 30 minutes, 60 minutes and 2 hours) were used for immunoprecipitation. Ax1 was immunoprecipited with anti Ax1 M-20. Anti phosphotyrosine antibodies were used to monitor ax1 phosphorylation state following TGF-β treatment (5 ng/ml for 15 minutes-2 hr). Samples in the first and last lane are from cells without TGF-β stimulation.
(§1) Further experiments were done on Rat1 cells that were serum starved for 24 hr and then stimulated for the indicated time (15 min-2 hr) with 5 ng/ml TGF-β.

[3] = system: Normal human fetal lung fibroblasts (WI-38); experiment: Fibroblast proliferation assay (neutral red staining); type: cell-based; conditions: for decrease in fibroblast proliferation: DFO
Procedure: (§2) Normal human fetal lung fibroblasts (WI-38, Coriell Cell Repositories) were cultured and sub-cultured in DMEM, supplemented with 10% inactivated fetal bovine serum (FBS), 2 mM L-glutamine, 100 U/ml penicillin, 100 μg/ml streptomycin. Fibroblasts were grown to confluence in 25 cm^2 tissue flasks and sub-cultured after trypsinization (0.5% trypsin-EDTA in Hank's balanced solution without Ca^2+ and Mg^2+) at 37° C. in an atmosphere of 5% CO2. Two ml of trypsin were added to each flask and incubated for 5 min; then cultures were centrifuged (5 min, 1000 rpm) and fresh medium was added to the pellet. Splitting conditions were 1:4-1:6.
The proliferation rate of sub-confluent fibroblasts was evaluated by staining with neutral red (BioRad). Fibroblasts were seeded in 96-well plate (6×10^3/well) in 200 μl of supplemented DMEM/10% FBS. After overnight culture, wells were washed twice with supplemented DMEM/20% FBS. Then, either TGF-β (2-20 ng/ml) or deferoxamine mesylate (DFO, which leads to conditions of chemical hypoxia) at a concentration of […] was added in 200 μl of supplemented DMEM/2% FBS for either 16 hours, 24 hours, 72 hours, or 5 days.
In the case of glucose treatments, after overnight culture, cell-containing wells were washed twice with supplemented glucose-free DMEM/2% FBS. Working concentrations of glucose (5.5 mM, 15 mM, 27.5 mM, or 55 mM) were prepared by dissolving stock solution (110 mM) in supplemented DMEM without glucose/2% FBS. Prepared solutions of glucose were added to fibroblast cultures for either 24 or 72 hours.
Upon completion of incubation, cells were stained with 100 μl of 1% neutral red for 2 hours. After washing with cold PBS, fibroblast monolayers were fixed with 200 μl of ethanol-Sorenson buffer solution (1:1) for 10 min. Optical density was measured with an automated spectrophotometer (λ=540 nm).

Ax1 [4] = experiment: Western blot analysis of endogenous Ax1 expression after TGF-β stimulation; type: cell-based, rat
Procedure: FIG. 1. […] Lane 1: NRK 49F cells; Lane2: NRK 49F cells with TGF-β 5 ng/ml, 24 hr; Lane 3: Rat1 cells; Lane4: Rat1 cells+TGF-β 5 ng/ml, 24 hr; Lane 5: W138 cells; Lane 6: HeLa cells; Lane 7: 293 cells.
FIG. 2. […] Total cell lysates from Rat1 cells exposed to TGF-β stimulation (5 ng/ml for 15 minutes, 30 minutes, 60 minutes and 2 hours) were run on gel and probed with anti Ax1 C20 Ab (Western blot analysis). Samples in the first and last lane are from cells without TGF-β stimulation.
In order to verify the chip hybridization results, the response of endogenous Ax1 expression to TGF-β stimulation was monitored by Western blot analysis. Total cellular proteins from various cell lines, (of which Rat1 cell line was also stimulated by TGF-β (5 ng/ml for 24 hr) were extracted, and the expression of Ax1 was analyzed by Western blot analysis. Thirty (30) μg of total cellular lysate were run on an 8% SDS gel.
as §1

[5] = system: Normal human fetal lung fibroblasts (WI-38); experiment: Collagen production assay ([3H]-proline incorporation into collagenous proteins); type: cell-based; conditions: concentrations of 2-20 ng/ml
Procedure: as §2
Collagen production by confluent fibroblast monolayers was assessed by [^3H]-proline incorporation into collagenous proteins. Fibroblasts were seeded in 24-well tissue culture plates (2×10^4/well) and grown in 1 ml of supplemented DMEM/10%FBS until confluence.
Confluent fibroblast cultures were incubated with prepared solutions for either 24 or 48 hr. […] The production of collagen was determined as the difference between total [^3H]proline-containing proteins in the sample incubated without collagenase and those left after collagenase digestion. To determine the number of cells in each well, fibroblasts were detached by trypsinization on the last day of the experiment, and counted in a hemocytometer. […]

Ax1 [6] = experiment: Microarray hybridization of treated human fibroblasts (Fibrosis DNA chip); type: cell-based; conditions: TGF-β treatment of human fibroblasts
Procedure: Microarray-based analysis of gene expression was based on the analysis of human fibroblasts subject to selected stimuli resulting in changes in extracellular collagen accumulation and proliferation—the hallmarks of fibrosis. According to the present invention, a specific “Fibrosis” DNA chip was first prepared followed by a microarray hybridization experiments with 19 different types of probes. Analysis of the results was carried out by proprietary algorithms, and analysis of the selected set of genes was performed by using bioinformatics and the scienctific literature.
A dedicated human “Fibrosis” DNA chip was prepared according to assignee's SDGI method (PCT Application Publication No. WO 01/75180) from growth-arrested human fibroblasts.
Probes for microarray hybridization were derived from these treated fibroblasts. In accordance with the present invention, treatments that are relevant for diabetic nephropathy development were used, such as glucose deprivation or hypoxia (modeling ischemic conditions that develop in fibrotic kidney); high glucose (modeling diabetic hyperglycemia) and TGF-β induction (modeling a fibrotic condition that is characterized by growth factor and cytokine imbalance).
In the next step, the RNA from these treated fibroblasts was extracted and used for preparation of probes for microarray hybridization. The scheme of hybridization is presented below: […]

In the case of CC(=O)CC(c1ccccc1)c1c(O)c2ccccc2oc1=O (stereo not shown) [wafarin], the mesangial cell proliferation (mesangial cells) is listed as “inhibit mesangial cell proliferation”.
For CCCCc1nc(Cl)c(CO)n1Cc1ccc(-c2ccccc2-c2nn[nH]n2)cc1 [losartan], the “effect on angiotensin-stimulated Ax1 expression” value (Ax1 [1]) is given as “blocked the stimulatory effect of angiotensin on Ax1 expression”.
In the case of TGF-β, the Ax1 phosphorylation (Ax1 [2]) is reported as “Increase in its phosphorylation”, the “increase in the fibroblast proliferation rate” value ([3]; 2 and 20 ng/ml, after 24 hrs treatment) is reported as roughly 60% and the “endogenous Ax1 expression (Western blot)” value (Ax1 [4]; Rat1 cells, TGF-β 5 ng/ml for 24 hr) is reported as “slight up-regulation”. For the same compound, the “Ax1 protein level (Western blot)” value (Ax1 [4]; serum starved Rat1 cells, 5 ng/ml TGF-β, following 15 min) was “induces Ax1 protein level”, the “enhancement in collagen production” value [5] was 110-180% and the “induction of Ax1 expression” value (Ax1 [6]) was “at least 2 fold”.
In the case of CC(=O)N(O)CCCCCNC(=O)CCC(=O)N(O)CCCCCNC(=O)CCC(=O)N(O)CCCCCN [DFO, deferoxamine mesylate], the “decrease in fibroblast proliferation” value ([3]; after 16 hr incubation) is reported as 20% and the “decrease in fibroblast proliferation” value ([3]; after 5 days of treatment) is reported as 80%.

Source: US20030157573A1, “Use of Axl receptor for diagnosis and treatment of renal disease” (priority 2002, published 2003)
